Measurements reported in US10144742B2 (Millennium Pharmaceuticals, Inc., priority 2014, dated 2018).
Read-outs that look alike come from different tables or passages of the source.

Columns and labels:
[1] = molecular target: hNAMPT protein (Homo sapiens (Human), UniProt P43490); experiment: NAMPT enzyme assay (TR-FRET/HTRF, BodiPY ligand, anti 6His-Tb); type: binding; details: for inhibition at 1 µM: read-out: Percent Inhibition
Outline: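 TR-FRET binding assay in which His-tagged human NAMPT with anti-6His-Tb is displaced by compound from a BodiPY ligand, incubated 1 h at rt in the dark. Excitation was at 320 nm, with the 520/486 nm emission ratio read. IC50 was fitted from inhibition relative to DMSO controls.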

[2] = test system: PC3 cells; experiment: PC3 growth inhibition (Cell-titer glo, 72 hours); type: cell-based; details: Homo sapiens, read-out: Percent Inhibition (PC3 growth inhibition)
Outline: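 PC3 cells in RPMI1640 seeded overnight at 37 °C, 5% CO2, then exposed to compound diluted in AIM serum-free medium for 72 h. Viability by CellTiter-Glo luminescence vs DMSO controls; single-concentration % remaining viability (1 μM or 1.667 μM), or GI50/LD50 from curves.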

[3] = NAMPT IC50 range class, read-out: IC50
[4] = PC-3, compound concentration 1 μM, PC3 cells, 72 hours, Cell-titer glo

Sequence of hNAMPT protein (P43490 whole entry): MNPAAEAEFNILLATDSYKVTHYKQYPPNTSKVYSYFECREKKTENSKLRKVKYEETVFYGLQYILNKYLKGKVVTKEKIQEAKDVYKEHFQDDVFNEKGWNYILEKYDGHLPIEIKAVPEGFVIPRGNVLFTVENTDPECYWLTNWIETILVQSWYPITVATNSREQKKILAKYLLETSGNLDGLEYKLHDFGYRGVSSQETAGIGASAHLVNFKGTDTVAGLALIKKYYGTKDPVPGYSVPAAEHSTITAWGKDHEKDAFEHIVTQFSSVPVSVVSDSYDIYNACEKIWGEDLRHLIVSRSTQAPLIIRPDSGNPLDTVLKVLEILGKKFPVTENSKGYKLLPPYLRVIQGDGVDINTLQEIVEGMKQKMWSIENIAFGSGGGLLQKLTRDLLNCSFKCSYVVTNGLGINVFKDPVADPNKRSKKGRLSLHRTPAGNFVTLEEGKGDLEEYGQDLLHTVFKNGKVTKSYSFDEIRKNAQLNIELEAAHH

| Compound | IC50 [1, 3] [nM] | inhibition at 1 µM ([1]; compound concentration 1 μM) [%] | inhibition at 1 µM [2, 4] [%] | inhibition at 1.667 µM ([2]; PC-3, compound concentration 1.667 μM, PC3 cells, 72 hours, Cell-titer glo) [%] | IC50 [1] [nM] | inhibition at 1 µM [1] [%] | inhibition at 1 µM ([2]; PC-3, 72 h) [%] |
| --- | --- | --- | --- | --- | --- | --- | --- |
| O=C(NCCCn1ccnc1)c1ccc2nc(-c3ccccc3)c(-c3cccc(Cl)c3)nc2c1 [Compound I-224, 3-(3-chlorophenyl)-N-[3-(1H-imidazol-1-yl)propyl]-2-phenylquinoxaline-6-carboxamide] | 100 to 500 | 74 | 1 | – | – | – | – |
| O=C(c1ccc2nc(-c3ccc(F)cc3)c(-c3ccc(F)cc3)nc2c1)N1CCc2[nH]ncc2C1 [Compound I-225, [2,3-bis(4-fluorophenyl)quinoxalin-6-yl](1,4,6,7-tetrahydro-5H-pyrazolo[4,3-c]pyridin-5-yl)methanone] | 2000 to 10000 | 14 | 91 | – | – | – | – |
| COC1CCN(c2nc3ccc(C(=O)NCCCn4ccnc4)cc3nc2-c2ccccc2)C1 (stereo not drawn) [Compound I-226, N-[3-(1H-imidazol-1-yl)propyl]-2-(3-methoxypyrrolidin-1-yl)-3-phenylquinoxaline-6-carboxamide] | 100 to 500 | 70 | -7 | – | – | – | – |
| O=C(NCCCn1ccnc1)c1ccc2nc(-c3ccccc3)c(-c3ccc4cc[nH]c4c3)nc2c1 [Compound I-227, N-[3-(1H-imidazol-1-yl)propyl]-3-(1H-indol-6-yl)-2-phenylquinoxaline-6-carboxamide] | 500 to 1000 | 68 | 1 | – | – | – | – |
| CCOc1cccc(-c2nc3ccc(C(=O)NCCCn4ccnc4)cc3nc2-c2ccccc2)c1 [Compound I-228, 2-(3-ethoxyphenyl)-N-[3-(1H-imidazol-1-yl)propyl]-3-phenylquinoxaline-6-carboxamide] | 100 to 500 | 80 | -8 | – | – | – | – |
| O=C(NCCCc1ccncc1)c1ccc2nc(-c3ccc(F)cc3)c(-c3ccc(F)cc3)nc2c1 [Compound I-229, 2,3-bis(4-fluorophenyl)-N-[3-(pyridin-4-yl)propyl]quinoxaline-6-carboxamide] | 100 to 500 | 73 | 95 | – | – | – | – |
| O=C(NCCCn1ccnc1)c1ccc2nc(C3=CCCC3)c(-c3ccccc3)nc2c1 [Compound I-230, 2-(cyclopent-1-en-1-yl)-N-[3-(1H-imidazol-1-yl)propyl]-3-phenylquinoxaline-6-carboxamide] | 500 to 1000 | 62 | -7 | – | – | – | – |
| CC(C)(C)OC(=O)NCC1(O)CCN(C2CCN(c3nc4ccc(C(=O)NCCCn5ccnc5)cc4nc3-c3ccccc3)CC2)CC1 [Compound I-231, tert-Butyl {[4-hydroxy-1′-(6-{[3-(1H-imidazol-1-yl)propyl]carbamoyl}-3-phenylquinoxalin-2-yl)-1,4′-bipiperidin-4-yl]methyl}carbamate] | < 100 | 95 | -2 | – | – | – | – |
| O=C(NCCCc1ncc[nH]1)c1ccc2nc(N3CCCCC3)c(-c3ccc(F)cc3)nc2c1 [Compound I-232, 3-(4-fluorophenyl)-N-[3-(1H-imidazol-2-yl)propyl]-2-(piperidin-1-yl)quinoxaline-6-carboxamide] | < 100 | > 99 | – | 2 | – | – | – |
| O=C(NCCCn1ccnc1)c1ccc2nc(Nc3ccccc3)c(-c3ccccc3)nc2c1 [Compound I-233, 2-Anilino-N-[3-(1H-imidazol-1-yl)propyl]-3-phenylquinoxaline-6-carboxamide] | – | – | – | – | 2000 to 10000 | 43 | -8 |
| Cn1ccnc1CCCNC(=O)c1ccc2nc(-c3ccc(F)cc3)c(-c3ccc(F)cc3)nc2c1 [Compound I-234, 2,3-bis(4-fluorophenyl)-N-[3-(1-methyl-1H-imidazol-2-yl)propyl]quinoxaline-6-carboxamide] | < 100 | 100 | 41 | – | – | – | – |
| NC(=O)c1cccc(-c2nc3ccc(C(=O)NCCCn4ccnc4)cc3nc2-c2ccccc2)c1 [Compound I-235, 2-(3-carbamoylphenyl)-N-[3-(1H-imidazol-1-yl)propyl]-3-phenylquinoxaline-6-carboxamide] | 100 to 500 | 79 | -8 | – | – | – | – |
| O=C(NCCCn1ccnc1)c1ccc2nc(-c3ccccc3)c(-c3cccs3)nc2c1 [Compound I-236, N-[3-(1H-imidazol-1-yl)propyl]-2-phenyl-3-(2-thienyl)quinoxaline-6-carboxamide] | < 100 | 99 | 1 | – | – | – | – |
| O=C(NCCn1cncn1)c1ccc2nc(-c3ccc(F)cc3)c(-c3ccc(F)cc3)nc2c1 [Compound I-237, 2,3-bis(4-fluorophenyl)-N-[2-(1H-1,2,4-triazol-1-yl)ethyl]quinoxaline-6-carboxamide] | 2000 to 10000 | 21 | 96 | – | – | – | – |
